These results are taken from patent US9120770B2, “Substituted pyridine and pyrazine compounds as PDE4 inhibitors” (DART NEUROSCIENCE (CAYMAN) LTD., priority 2013, dated 2015).

For this test, the target named is PDE4D3 (Homo sapiens, UniProt Q08499).
Sequence of PDE4D3 (Q08499 1-673 isoform Q08499-2): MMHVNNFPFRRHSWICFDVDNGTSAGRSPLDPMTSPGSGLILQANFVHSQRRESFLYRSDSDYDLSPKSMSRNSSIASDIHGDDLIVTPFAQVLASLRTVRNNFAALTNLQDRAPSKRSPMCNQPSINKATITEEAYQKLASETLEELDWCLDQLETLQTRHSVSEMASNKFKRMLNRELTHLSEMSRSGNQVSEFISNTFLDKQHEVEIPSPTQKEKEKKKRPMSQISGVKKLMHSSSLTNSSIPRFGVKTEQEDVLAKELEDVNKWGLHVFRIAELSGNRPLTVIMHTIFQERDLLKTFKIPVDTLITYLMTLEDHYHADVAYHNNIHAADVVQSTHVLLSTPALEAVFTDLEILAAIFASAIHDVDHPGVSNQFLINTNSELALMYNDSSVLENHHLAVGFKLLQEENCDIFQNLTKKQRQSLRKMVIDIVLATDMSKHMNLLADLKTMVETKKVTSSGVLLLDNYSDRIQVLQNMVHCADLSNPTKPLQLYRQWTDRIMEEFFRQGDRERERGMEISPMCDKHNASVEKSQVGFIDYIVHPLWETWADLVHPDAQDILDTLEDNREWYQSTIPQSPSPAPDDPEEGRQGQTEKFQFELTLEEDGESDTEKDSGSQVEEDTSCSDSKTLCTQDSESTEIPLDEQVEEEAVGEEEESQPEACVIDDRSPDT

Take `FC(F)Oc1ncc(Cn2cnnn2)cc1-c1cccc(Cl)c1` [Example 161, 3-(3-Chlorophenyl)-2-(difluoromethoxy)-5-(1H-1,2,3,4-tetrazol-1-ylmethyl)pyridine]: the EC50 – broadly, the concentration at which the effect is half-maximal – is 100 to 1000 nM.

`NCc1cncc(Cc2cnc(OC(F)F)c(-c3cccc(Cl)c3)c2)c1` [Example 71, (5-{[5-(3-Chlorophenyl)-6-(difluoromethoxy)pyridin-3-yl]methyl}pyridin-3-yl)methanamine]: the concentration for a half-maximal effect (EC50) is under 100 nM. For `FC(F)Oc1ncc(Cc2cnc(NCC(F)(F)F)nc2)cc1-c1cccc(Cl)c1` [Example 94, 5-{[5-(3-Chlorophenyl)-6-(difluoromethoxy)pyridin-3-yl]methyl}-N-(2,2,2-trifluoroethyl)pyrimidin-2-amine] the value was 100 to 1000 nM; for `COc1ncc(Cn2cnc(N)n2)cc1-c1cccc(OC(F)F)c1` [Example 217, 1-({5-[3-(Difluoromethoxy)phenyl]-6-methoxypyridin-3-yl}methyl)-1H-1,2,4-triazol-3-amine], under 100 nM; for `COc1ncc(Cn2cncn2)cc1-c1cc(F)cc(F)c1` [Example 139, 3-(3,5-Difluorophenyl)-2-methoxy-5-(1H-1,2,4-triazol-1-ylmethyl)pyridine], 100 to 1000 nM. Regarding `NC(=O)Cc1ccc(Cc2cnc(OC(F)F)c(-c3cccc(Cl)c3)c2)cc1` [Example 246, 2-(4-{[5-(3-Chlorophenyl)-6-(difluoromethoxy)pyridin-3-yl]methyl}phenyl)acetamide], the EC50 was under 100 nM.

Consider `COc1ncc(Cn2cc(CO)nn2)nc1-c1cccc(Cl)c1` [Example 266, (1-{[6-(3-Chlorophenyl)-5-methoxypyrazin-2-yl]methyl}-1H-1,2,3-triazol-4-yl)methanol], for which the EC50 is 100 to 1000 nM. On to `COc1ncc(Cn2cnc(N)n2)cc1-c1cccc(OC2CC2)c1` [Example 225, 1-{[5-(3-Cyclopropoxyphenyl)-6-methoxypyridin-3-yl]methyl}-1H-1,2,4-triazol-3-amine], for which the EC50 lay within 1000 to 10000 nM. Then `CC(C)Oc1cccc(-c2cc(Cc3cnc(N)nc3)cnc2OC(F)F)c1` [Example 42, 5-{[6-(Difluoromethoxy)-5-[3-(propan-2-yloxy)phenyl]pyridin-3-yl]methyl}pyrimidin-2-amine], with 1000 to 10000 nM.

Regarding `CCOc1ncc(Cn2cnc(CO)n2)nc1-c1cccc(OC(F)F)c1` [Example 208, [1-({6-[3-(Difluoromethoxy)phenyl]-5-ethoxypyrazin-2-yl}methyl)-1H-1,2,4-triazol-3-yl]methanol], the EC50 lay in the range of 100 to 1000 nM. `CCOc1ncc(Cc2ccc(C(N)=O)nc2)nc1-c1cccc(OC(F)F)c1` [Example 124, 5-({6-[3-(Difluoromethoxy)phenyl]-5-ethoxypyrazin-2-yl}methyl)pyridine-2-carboxamide]: the EC50 was under 100 nM. `COC(=O)c1ccc(Cc2cnc(OC)c(-c3cccc(Cl)c3)n2)cc1` [Example 85, Methyl 4-{[6-(3-chlorophenyl)-5-methoxypyrazin-2-yl]methyl}benzoate] showed an EC50 of 100 to 1000 nM. Then `CCOc1ncc(Cn2cnc(C(F)(F)F)n2)cc1-c1cccc(OC(F)F)c1` [Example 163, 3-[3-(Difluoromethoxy)phenyl]-2-ethoxy-5-{[3-(trifluoromethyl)-1H-1,2,4-triazol-1-yl]methyl}pyridine], with under 100 nM.
